Results: ChEMBL document CHEMBL1149588, “Inhibition of colon cancer cell growth and antioxidant activity of bioactive compounds from Poncirus trifoliata (L.) Raf” (Bioorg Med Chem, 2007)
Activity calls are given as the source filed them. No cut-off for these calls is given here.

Legend:
[1] = tested on: HT-29; test: Induction of apoptosis in human HT29 cells at 5 uM; assay type: functional, cell-based
[2] = Growth inhibition of monkey COS1 cells at 1.25 uM after 48 hrs by MTT assay; assay type: cell-based, Macaca mulatta; details: rhesus monkey, cos-1, 48 h
[3] = Growth inhibition of monkey COS1 cells at 5 uM after 48 hrs by MTT assay; assay type: cell-based, Macaca mulatta; details: rhesus monkey, cos-1, 48 h
[4] = Growth inhibition of monkey COS1 cells at 2.5 uM after 48 hrs by MTT assay; assay type: cell-based, Macaca mulatta; details: rhesus monkey, cos-1, 48 h
[5] = Growth inhibition of monkey COS1 cells at 0.63 uM after 48 hrs by MTT assay; assay type: cell-based, Macaca mulatta; details: rhesus monkey, cos-1, 48 h
[6] = tested on: HT-29; test: Antiproliferative activity against human HT29 cells at 5 uM after 24 hrs by MTT assay; assay type: functional, cell-based

SMILES: CC[C@@]1(O)C(=O)OCc2c1cc1n(c2=O)Cc2cc3ccccc3nc2-1
- Activity [1]: Active

SMILES: COC(=O)C(O)(CC(=O)O)CC(=O)O
- Activity [2]: Non-toxic
- Activity [3]: Non-toxic
- Activity [4]: Non-toxic
- Activity [5]: Non-toxic
- Activity [1]: Active
- Activity [6]: Active

SMILES: CCC(CC[C@@H](C)[C@H]1CC[C@H]2[C@@H]3CC=C4C[C@@H](O)CC[C@]4(C)[C@H]3CC[C@]12C)C(C)C (single isomer, unassigned) [BETA-SITOSTEROL]
- Activity [2]: Non-toxic
- Activity [3]: Non-toxic
- Activity [4]: Non-toxic
- Activity [5]: Non-toxic
- Activity [1]: Active
- Activity [6]: Active
